Structures can show the parent of a compound that is named as a salt. Where two headings read alike, the source gives them in different places.

One assay has as its target T1, CB2 receptor (Rattus norvegicus, UniProt Q9QZN9).
T1 construct: from tissue; host or cells: rat spleen membrane specimen
T1 sequence (Q9QZN9 1-360): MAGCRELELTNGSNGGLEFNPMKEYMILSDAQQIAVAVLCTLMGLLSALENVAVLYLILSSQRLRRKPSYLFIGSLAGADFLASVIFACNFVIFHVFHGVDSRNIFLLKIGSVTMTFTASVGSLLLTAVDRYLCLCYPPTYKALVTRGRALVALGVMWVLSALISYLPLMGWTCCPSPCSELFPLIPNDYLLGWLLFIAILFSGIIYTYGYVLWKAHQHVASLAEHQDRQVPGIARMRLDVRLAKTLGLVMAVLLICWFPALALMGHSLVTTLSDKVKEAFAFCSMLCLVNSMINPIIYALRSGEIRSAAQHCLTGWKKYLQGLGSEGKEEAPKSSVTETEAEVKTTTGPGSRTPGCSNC
As to the kind of experiment: Cannabinoid CB2 receptor-binding activity ([3H]CP55940 binding experiment), rat spleen membrane specimen. As for the experimental part: A test was carried out according to the method of Hillard et al. [The Journal of Pharmacology and Experimental Therapeutics, vol. 289, p. 1427 (1999)]. A rat forebrain membrane specimen and a rat spleen membrane specimen were prepared and used in a binding experiment for a CB1 receptor and a binding experiment for a CB2 receptor, respectively. The membrane specimen (forebrain: final concentration of 0.5 mg of protein/mL, spleen: final concentration of 2 mg of protein/mL) was incubated together with a test compound and [^3H]CP55940 (manufactured by PerkinElmer) ((−)-cis-3-[2-hydroxy-[3,5-^3H]-4-(1,1-dimethylheptyl)phenyl]-trans-4-(3-hydroxypropyl)cyclohexanol)) (final concentration: 0.5 nmol/L) in an assay buffer (50 mmol/L Tris-HCl buffer (pH 7.4), 1 mmol/L EDTA and 3 mmol/L MgCl2) containing 0.1% bovine serum albumin at 25° C. for 1 hour, and the resulting mixture was filtered using a glass filter GF/C (manufactured by Whatman) treated with 1% polyethyleneimine. After the glass filter was washed with the assay buffer containing 0.2% bovine serum albumin, the radioactivity on the glass filter was measured using a liquid scintillation counter (TRI-CARB 2700TR, manufactured by Packard). The binding amount in the presence of 10 μmol/L […] (manufactured by Tocris) ((R)-(+)-[2,3-dihydro-5-methyl-3-(4-morpholinylmethyl)pyrrolo[1,2,3-de]-1,4-benzoxazin-6-yl]-1-naphthalenylmethanone) was considered to be a non-specific binding amount, and a difference between the total binding amount and the non-specific binding amount was considered to be a specific binding amount. The 50% inhibitory concentration (IC50 value) of the test compound against the specific binding was obtained, and the Ki value of the test substance was calculated from the 50% inhibitory concentration and the Kd value of the [^3H]CP55940 binding.

The target of the next assay is T2, human CB2 receptor (Homo sapiens, UniProt P34972).
T2 construct: expressed in transfected cells
T2 sequence (P34972 whole entry): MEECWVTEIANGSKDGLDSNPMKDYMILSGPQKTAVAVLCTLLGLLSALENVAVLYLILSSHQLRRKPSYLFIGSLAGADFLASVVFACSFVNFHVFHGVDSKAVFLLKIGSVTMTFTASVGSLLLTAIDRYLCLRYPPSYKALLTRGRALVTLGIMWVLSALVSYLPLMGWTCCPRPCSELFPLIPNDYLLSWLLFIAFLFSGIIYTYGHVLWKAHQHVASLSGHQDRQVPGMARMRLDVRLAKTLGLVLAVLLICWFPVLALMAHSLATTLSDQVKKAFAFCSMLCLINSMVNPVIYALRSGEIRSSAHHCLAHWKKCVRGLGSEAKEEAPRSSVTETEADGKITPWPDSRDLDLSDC
The assay is described as follows: GTPγS binding experiment via human CB2 receptor (membrane fraction of CHO-K1 cells). The format is biochemical. The conditions noted are these: for Emax: read-out: Emax value (maximum effect of CP55940 as 100%). The procedure:
A test was carried out according to the method of Hillard et al. [The Journal of Pharmacology and Experimental Therapeutics, vol. 289, p. 1427 (1999)]. As for a membrane specimen, a membrane fraction was prepared from CHO-K1 cells in which a human CB2 receptor [Nature, vol. 365, pp. 61-65 (1993)] was stably expressed and used. The membrane specimen (final concentration: 40 μg of protein/mL) was incubated together with a test compound and [^35S]GTPγS (manufactured by PerkinElmer) (final concentration: 0.05 nmol/L) in an assay buffer (50 mmol/L Tris-HCl buffer (pH 7.4), 100 mmol/L NaCl, 1 mmol/L EDTA, 3 mmol/L MgCl2, and 0.1% bovine serum albumin) containing 20 μmol/L guanosine 5′-diphosphate (GDP) at 30° C. for 1 hour, and the resulting mixture was filtered using a glass filter GF/B (manufactured by Whatman). After the glass filter was washed with the assay buffer, the radioactivity on the glass filter was measured using a liquid scintillation counter (TRI-CARB 2700TR, manufactured by Packard). The binding amount in the presence of 10 μmol/L GTPγS was considered to be a non-specific binding amount, and a difference between the total binding amount and the non-specific binding amount was considered to be a specific binding amount. The ratio of increase in the specific binding amount in the presence of the test compound to the specific binding amount in the absence of the test compound was considered to be an agonistic activity of the test compound. The concentration of the test compound that produces 50% of the maximum effect (EC50 value) was calculated by performing a nonlinear regression analysis using the concentration-response data. The percentage of the maximum effect of the test compound (Emax value) was calculated by considering the maximum effect of CP55940 (manufactured by Tocris) measured at the same time as 100%.

Assay [1] deals with rats with chronic constriction nerve injury. As to the kind of experiment: Analgesic effect in rats with chronic constriction nerve injury (von Frey filament). Type of assay: in vivo, rat. As to conditions: oral, dose of 50 mg/kg or less, one hour after administration, von Frey filaments. The text has this: Rats with chronic constriction nerve injury were produced by partially modifying the method of Mosconi and Kruger et al. (Pain, vol. 64, pp. 37-57 (1996))
Male Crl:CD(SD) rats were used for the experiments. Under pentobarbital anesthesia, the sciatic nerve of the left hind limb of the rat was exfoliated, and the exfoliated region was wrapped with a polyethylene tube (trade name: Intramedic, size: PE-60, manufactured by Becton Dickinson and Company) of 2 mm in length. On days 14 to 21 after the surgery, the rats were placed in an acrylic connected cage with a wire mesh floor (900 mm (length)×210 mm (depth)×140 mm (height)) consisting of 4 cages connected in a row and allowed to acclimate to the environment for at least 20 minutes, and then, the pain was evaluated.
The von Frey filament (trade name: touch test sensory evaluator, Model number: model 58011, manufactured by Muromachi Kikai) was used to evaluate pain, and the results were calculated as a pain threshold. That is, by using a von Frey filament of different stimulus intensity, stimulation was given to the plantar surface of the injured side of rats with chronic constriction nerve injury, and the stimulus intensity to cause paw withdrawal response was obtained. Then, the 50% pain threshold (Paw withdrawal threshold) (g) was calculated by the up down method of Dixon [Annual Review of Pharmacology and Toxicology, vol. 20, pp. 441-462 (1980)].
In the evaluation of the test compound, rats with 50% pain threshold of less than 4 g were used, and the test compound was dissolved in a 0.5% aqueous methyl cellulose solution and orally administered at a dose of 5 mL/kg. One hour after the administration, the pain threshold was measured using von Frey filaments.

The mark [2] stands for this setting: rat spleen membrane, [3H]CP55940 0.5 nmol/L, 25° C., 1 hour, read-out: Ki value against the CB2 receptor.

In the case of `CC(C)(C)c1nc(-c2cccc([N+](=O)[O-])c2)cn1CC1CCCCC1` [Compound 28, 2-tert-Butyl-1-cyclohexylmethyl-4-(3-nitrophenyl)-1H-imidazole], the Ki on CB2 receptor (setting [2]) was less than 1000 nM.
For `CCN(CC)C(=O)c1cccc(-c2cn(CC3CCCCC3)c(C(C)(C)C)n2)c1` [Compound 32, 3-(2-tert-Butyl-1-cyclohexylmethyl-1H-imidazol-4-yl)-N,N-diethylbenzamide], at CB2 receptor (setting [2]), the Ki was less than 1000 nM.
As for `COc1cccc(-c2cn(CC3CCCCC3)c(CC(C)(C)C)n2)c1` [Compound 38, 1-Cyclohexylmethyl-2-(2,2-dimethylpropyl)-4-(3-methoxyphenyl)-1H-imidazole], on human CB2 receptor, the EC50 was less than 1000 nM and the maximal effect (Emax) is more than 30%.
On to `CC(C)(C)c1nc(-c2cccc([N+](=O)[O-])c2)cn1CC1CCCCO1` (stereo not shown) [Compound 42, 2-tert-Butyl-4-(3-nitrophenyl)-1-(tetrahydropyran-2-ylmethyl)-1H-imidazole], for which, on CB2 receptor, the Ki was less than 1000 nM. Moreover, at human CB2 receptor, the EC50 is less than 1000 nM and the Emax was more than 30%.
Take `CC(C)C(=O)c1cccc(-c2cn(CC3CCOCC3)c(C(C)(C)C)n2)c1` [Compound 47, 1-{3-[2-tert-Butyl-1-(tetrahydropyran-4-ylmethyl)-1H-imidazol-4-yl]phenyl}-2-methylpropan-1-one hydrochloride]: on CB2 receptor (setting [2]), the Ki is less than 1000 nM.
With `CC(C)(C)c1nc(-c2cccc(C(=O)c3ccccc3)c2)cn1CC1CCOCC1` [Compound 48, {3-[2-tert-Butyl-1-(tetrahydropyran-4-ylmethyl)-1H-imidazol-4-yl]phenyl}phenylmethanone hydrochloride], the Ki at CB2 receptor was less than 1000 nM. For the same molecule, on human CB2 receptor, the EC50 was less than 1000 nM and the Emax was more than 30%.
Turning to `CC(=O)c1cccc(-c2cn(CC3CCOCC3)c(C(C)(C)C)n2)c1` [Compound 49, 1-{3-[2-tert-Butyl-1-(tetrahydropyran-4-ylmethyl)-1H-imidazol-4-yl]phenyl}ethanone], the Ki on CB2 receptor (setting [2]) was less than 1000 nM. Also, on human CB2 receptor, the EC50 was less than 1000 nM and the Emax was more than 30%.
For `CCNC(=O)c1cccc(-c2cn(CC3CCOCC3)c(C(C)(C)C)n2)c1` [Compound 72, 3-(2-tert-Butyl-1-(tetrahydropyran-4-ylmethyl)-1H-imidazol-4-yl)-N-ethylbenzamide], the Ki at CB2 receptor was less than 1000 nM. Moreover, on human CB2 receptor, the EC50 was less than 1000 nM and the Emax is more than 30%.
As for `CCN(CC)c1cccc(-c2cn(CC3CCOCC3)c(C(C)(C)C)n2)c1` [Compound 77, {3-[2-tert-Butyl-1-(tetrahydropyran-4-ylmethyl)-1H-imidazol-4-yl]phenyl}-diethylamine], the Ki at CB2 receptor was less than 1000 nM. Further, on human CB2 receptor, the EC50 is less than 1000 nM and the maximal effect (Emax) was more than 30%.
`CC(C)(C)c1nc(-c2cccc(C(=O)N(CC(F)(F)F)CC(F)(F)F)c2)cn1CC1CCOCC1` [Compound 82, 3-(2-tert-Butyl-1-(tetrahydropyran-4-ylmethyl)-1H-imidazol-4-yl)-N,N-bis(2,2,2-trifluoroethyl)benzamide] returned a Ki on CB2 receptor of less than 1000 nM. In addition, at human CB2 receptor, the EC50 was less than 1000 nM and the Emax is more than 30%.
In the case of `CC(C)(C)c1nc(-c2cncc(Br)c2)cn1CC1CCOCC1` [Compound 84, 3-Bromo-5-[2-tert-Butyl-1-(tetrahydropyran-4-ylmethyl)-1H-imidazol-4-yl]pyridine], the Ki on CB2 receptor (setting [2]) is less than 1000 nM.
For `CC(C)(C)c1nc(C=CC(=O)N(CC(F)(F)F)CC(F)(F)F)cn1CC1CCOCC1` [Compound 90, 3-(2-tert-Butyl-1-(tetrahydropyran-4-ylmethyl)-1H-imidazol-4-yl)-N,N-bis(2,2,2-trifluoroethyl)acrylamide], the Ki at CB2 receptor (setting [2]) was less than 1000 nM.
As for `CCCN(CCC)C(=O)C=Cc1cn(CC2CCOCC2)c(C(C)(C)C)n1` [Compound 92, 3-(2-tert-Butyl-1-(tetrahydropyran-4-ylmethyl)-1H-imidazol-4-yl)-N,N-dipropylacrylamide], the Ki on CB2 receptor (setting [2]) is less than 1000 nM.
In the case of `CN(C)C(=O)c1cc(-c2cn(CC3CCOCC3)c(C(C)(C)C)n2)cs1` [Compound 133, 4-[2-tert-Butyl-1-(tetrahydropyran-4-ylmethyl)-1H-imidazol-4-yl]thiophene-2-carboxylic acid dimethylamide], the Ki at CB2 receptor (setting [2]) was less than 1000 nM. Besides, the “50% pain threshold (paw withdrawal threshold)” value in assay [1] is recorded as “significantly increased the pain threshold”.
As to `CN(C)C(=O)c1cccc(-c2cn(CC3(F)CCOCC3)c(C(C)(C)C)n2)c1` [Compound 187, 3-[2-tert-Butyl-1-(4-fluorotetrahydropyran-4-ylmethyl)-1H-imidazol-4-yl]-N,N-dimethylbenzamide], the Ki on CB2 receptor (setting [2]) was less than 1000 nM. In assay [1], the “50% pain threshold (paw withdrawal threshold)” value is given as “significantly increased the pain threshold”.
On to `CN(C)C(=O)c1cc(-c2cn(CC3(F)CCOCC3)c(C(C)(C)C)n2)cs1` [Compound 188, 4-[2-tert-Butyl-1-(4-fluorotetrahydropyran-4-ylmethyl)-1H-imidazol-4-yl]-N,N-dimethylthiophene-2-carboxamide], for which, on CB2 receptor (setting [2]), the Ki is less than 1000 nM.
Same read-out and setting: the same measure for `CCOc1ccc(Cc2nc(-c3cccc(OC)c3)cn2CC2CCOCC2)cc1` [Compound o, 2-(4-Ethoxybenzyl)-4-(3-methoxyphenyl)-1-(tetrahydro-pyran-4-ylmethyl)-1H-imidazole]: less than 1000 nM; for `CCOc1ccc(Cc2nc(-c3cccc(C#N)c3)cn2CC2CCOCC2)cc1` [Compound p, 3-[2-(4-Ethoxybenzyl)-1-(tetrahydropyran-4-ylmethyl)-1H-imidazol-4-yl]benzonitrile]: less than 1000 nM; for `CCOc1ccc(Cc2nc(-c3cccc(C(=O)N(CC)CC)c3)cn2CC2CCOCC2)cc1` [Compound q, 3-[2-(4-Ethoxybenzyl)-1-(tetrahydropyran-4-ylmethyl)-1H-imidazol-4-yl]-N,N-diethylbenzamide]: less than 1000 nM.

For the origin of these results see patent publication US8273738B2, “Imidazole derivatives” (priority 2006, dated 2012).
